Four compounds from ChEMBL document CHEMBL4261526 (Medchemcomm, 2017) can be followed below.

Data set [1] addresses T1, Cholinesterase (Homo sapiens, UniProt P06276). In words: Inhibition of recombinant human BuChE using butyrylthiocholine as substrate preincubated for 30 mins followed by substrate addition and measured for 20 mins by Ellman's assay. A general note: DTNB colorimetry detects thiols as they appear.
Data set [2] has as its target T2, Acetylcholinesterase (Homo sapiens, UniProt P22303). In words: Inhibition of recombinant human AChE using acetylthiocholine iodide as substrate preincubated for 30 mins followed by substrate addition and measured for 20 mins by Ellman's assay.
The species entered for data set [3] is Homo sapiens. In words: Selectivity ratio of IC50 for recombinant human BuChE to IC50 for recombinant human AChE.
Data set [4] deals with T2, Acetylcholinesterase. In words: Inhibition of recombinant human AChE using acetylthiocholine iodide as substrate preincubated for 20 mins followed by substrate addition and measured for 5 mins by Ellman's assay.
Data set [5] in a line: in vitro. The following applies: human, HepG2 cells.
Description: Cytotoxicity against human HepG2 cells assessed as cell viability at 1 uM by MTT assay relative to control
The nature of data set [6]: in vitro. The following applies: human, HepG2 cells. The source holds these as a separate data set.
Description: Cytotoxicity against human HepG2 cells assessed as cell viability at 10 uM by MTT assay relative to control
Data set [7] is described as follows: in vitro. The following applies: human, HepG2 cells. This is another data set of the same source.
Description: Cytotoxicity against human HepG2 cells assessed as cell viability at 300 uM by MTT assay relative to control
Data set [8] is described as follows: in vitro. The following applies: human, HepG2 cells. This is another data set of the same source.
Description: Cytotoxicity against human HepG2 cells assessed as cell viability at 100 uM by MTT assay relative to control
Data set [9] addresses T1, Cholinesterase. In words: Inhibition of human serum BuChE using butyrylthiocholine iodide as substrate preincubated for 20 mins followed by substrate addition and measured for 5 mins by Ellman's assay.
The target of data set [10] is T2, Acetylcholinesterase. In words: Potency index, ratio of tacrine IC50 to test compound IC50 for recombinant human AChE.
Data set [11] deals with T1, Cholinesterase. In words: Potency index, ratio of tacrine IC50 to test compound IC50 for human serum BuChE.

T1 sequence (P06276 whole entry): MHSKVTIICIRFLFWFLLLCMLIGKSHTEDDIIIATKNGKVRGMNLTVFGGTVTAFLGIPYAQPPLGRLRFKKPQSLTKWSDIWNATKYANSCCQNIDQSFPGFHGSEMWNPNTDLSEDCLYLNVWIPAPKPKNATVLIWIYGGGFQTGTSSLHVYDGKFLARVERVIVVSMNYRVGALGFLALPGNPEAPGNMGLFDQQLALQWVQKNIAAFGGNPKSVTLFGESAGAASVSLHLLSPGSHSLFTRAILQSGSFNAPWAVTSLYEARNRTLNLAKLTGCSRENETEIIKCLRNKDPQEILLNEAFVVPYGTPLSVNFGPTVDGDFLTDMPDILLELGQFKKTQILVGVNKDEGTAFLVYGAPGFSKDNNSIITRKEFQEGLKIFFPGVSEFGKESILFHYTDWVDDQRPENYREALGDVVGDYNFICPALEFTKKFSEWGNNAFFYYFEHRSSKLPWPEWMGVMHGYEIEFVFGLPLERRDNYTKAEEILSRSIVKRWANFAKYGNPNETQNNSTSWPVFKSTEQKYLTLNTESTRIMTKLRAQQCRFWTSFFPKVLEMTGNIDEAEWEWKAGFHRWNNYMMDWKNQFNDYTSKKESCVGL
T2 sequence (P22303 whole entry): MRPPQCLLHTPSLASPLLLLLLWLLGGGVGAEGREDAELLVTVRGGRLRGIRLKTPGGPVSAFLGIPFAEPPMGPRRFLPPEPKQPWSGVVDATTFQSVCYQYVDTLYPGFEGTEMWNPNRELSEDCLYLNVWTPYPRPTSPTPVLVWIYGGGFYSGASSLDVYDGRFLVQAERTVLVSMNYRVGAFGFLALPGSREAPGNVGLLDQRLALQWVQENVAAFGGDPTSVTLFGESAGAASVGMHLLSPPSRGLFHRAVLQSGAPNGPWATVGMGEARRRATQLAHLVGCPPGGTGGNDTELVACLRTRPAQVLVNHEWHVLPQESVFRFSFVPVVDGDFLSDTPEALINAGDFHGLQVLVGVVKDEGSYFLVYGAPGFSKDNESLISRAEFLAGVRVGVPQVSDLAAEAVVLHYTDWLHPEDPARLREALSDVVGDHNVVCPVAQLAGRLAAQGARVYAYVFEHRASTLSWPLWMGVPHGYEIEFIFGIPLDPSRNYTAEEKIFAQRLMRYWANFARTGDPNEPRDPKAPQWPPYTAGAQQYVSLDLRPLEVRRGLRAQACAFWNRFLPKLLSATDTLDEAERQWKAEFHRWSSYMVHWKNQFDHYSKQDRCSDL

As usually defined, the IC50 is the concentration that gives 50% inhibition. As to `Nc1c2c(nc3cc(Cl)ccc13)C[C@H]1C=C(CCCCn3cc(CO)nn3)C[C@H]2C1`, the concentration for half-maximal inhibition (IC50) was found to be 210 nM in [1] and 0.43 nM in [2]. For the same compound, the Ratio IC50 in [3] is 488.

Usually viability stands for a per cent measure of how many cells are alive, often set against a control. Read a high viability as less harm to the cells. In the case of `Cn1c2nc3ccccc3c-2c(NCCCCCCNc2c3c(nc4ccccc24)CCCC3)c2ccccc21`, the half-maximal inhibitory concentration (IC50) in [4] was 1.25 nM; in data set [9] it was 9 nM. Moreover, the viability at 1 µM in data set [5] was 40.9%. Moreover, the viability at 10 µM in data set [6] was determined as 34.9%. Moreover, in data set [7], the viability at 300 µM was 36.5%. The viability at 100 µM in data set [8] came to 36.2%.

Turning to `Cn1c2nc3ccccc3c-2c(NCCCCCCCCNc2c3c(nc4ccccc24)CCCC3)c2ccccc21`, the values for the Ratio IC50 in data set [10] and in data set [11] were 368 and 17.4, respectively. The half-inhibitory concentration (IC50) came out at 0.95 nM in data set [4] and 2.29 nM in data set [9]. Further, the viability at 1 µM in data set [5] is 78.1%. Also, in data set [6], the viability at 10 µM was found to be 41.4%. In [7], the viability at 300 µM amounted to 37.9%. The compound further yielded a viability at 100 µM in data set [8] of 38.4%.

Regarding `Cn1c2nc3ccccc3c-2c(NCCCCNc2c3c(nc4ccccc24)CCCC3)c2ccccc21`, the results for the IC50 in data set [4] and in [9] were 53 nM and 21.8 nM, respectively. Moreover, the viability at 1 µM in [5] is 99.5%. The same compound displayed a viability at 10 µM in [6] of 37.2%. The viability at 300 µM in data set [7] stood at 34.8%. Further, in [8], the viability at 100 µM was determined as 33.8%.
